Experiments:
Type in all cases: in vivo
[1] = Whole blood glucose after ingesting 100 g of carbohydrates, glucose oxidase reaction
Protocol: (§1) 1.5 g of phlorizin as a dry powder in a gelatin capsule was ingested one hour prior to ingesting 100 g of carbohydrates and compared to similar ingestion of carbohydrates without the prior consumption of the phlorizin. Glucose and insulin levels were measured just prior to and 30 and 60 minutes following carbohydrate ingestion and glucose levels were also measured 90 and 120 minutes after carbohydrate ingestion. Glucose levels were established by glucose oxidase reaction using whole blood and measuring the color generated with a hand-held spectrophotometer. Serum insulin was measured using commercially available immunoassay devices and methods.

[2] = Urine glucose after oral ingestion of phlorizin, no food versus in milk; conditions: 1 gm oral; for urine glucose: 85 kg male
[3] = Body weight during oral phlorizin three times a day on an empty stomach; conditions: for Weight after 3 days of phlorizin: 1.5 grams oral three times a day, 90 minutes before eating
Protocol: 1.5 grams phlorizin as a dry powder in a gelatin capsule was ingested orally three times a day, 90 minutes before eating on an empty stomach. Weight measured at the same time each day with a digital electronic scale. Normal dietary conditions were maintained during the time that the phlorizin was ingested.

[4] = Serum insulin after ingesting 100 g of carbohydrates, immunoassay; conditions: 1.5 g oral one hour prior to 100 g of carbohydrates
Protocol: as §1

`O=C(CCc1ccc(O)cc1)c1c(O)cc(O)cc1O[C@@H]1O[C@H](CO)[C@@H](O)[C@H](O)[C@H]1O` [phlorizin] gave a GLUCOSE ([1]; 1.5 g oral one hour prior to 100 g of carbohydrates, 0 minutes (just prior to carbohydrate ingestion)) of 90 mg/dL, a GLUCOSE ([1]; 1.5 g oral one hour prior to 100 g of carbohydrates, 30 minutes after carbohydrate ingestion) of 146 mg/dL and a GLUCOSE ([1]; 1.5 g oral one hour prior to 100 g of carbohydrates, 60 minutes after carbohydrate ingestion) of 144 mg/dL. The GLUCOSE ([1]; 1.5 g oral one hour prior to 100 g of carbohydrates, 90 minutes after carbohydrate ingestion) was 108 mg/dL, the GLUCOSE ([1]; 1.5 g oral one hour prior to 100 g of carbohydrates, 120 minutes after carbohydrate ingestion) was 117 mg/dL and the “effect on postprandial rise in glucose and insulin levels” value ([1]; 1.5 g oral one hour prior to 100 g of carbohydrates, conclusion in words) was “able to decrease the postpandrial rise in glucose and insulin levels”. For the same molecule, the “prevention of reactive hypoglycemia” value ([1]; glucose levels at 90 and 120 minutes with and without phlorizin, conclusion in words) was “effective in preventing reactive hypoglycemia”, the urine glucose ([2]; in milk, 0 minutes after ingestion) was “no food: <50 mg/dl in milk: <50 mg/dl” and the urine glucose ([2]; in milk, 90 minutes after ingestion) was < 50 mg/dL. For the same molecule, the urine glucose ([2]; in milk, 150 minutes after ingestion) was “no food: 50 mg/dl in milk: <50 mg/dl”, the urine glucose ([2]; in milk, 210 minutes after ingestion) was “no food: <50 mg/dl in milk: <50 mg/dl” and the urine glucose ([2]; no food (empty stomach), 0 minutes after ingestion) was “no food: <50 mg/dl in milk: <50 mg/dl”. The urine glucose ([2]; no food (empty stomach), 90 minutes after ingestion) was 500 mg/dL, the urine glucose ([2]; no food (empty stomach), 150 minutes after ingestion) was “no food: 50 mg/dl in milk: <50 mg/dl” and the urine glucose ([2]; no food (empty stomach), 210 minutes after ingestion) was “no food: <50 mg/dl in milk: <50 mg/dl”. The “effectiveness as a glucose blocker (urine glucose)” value ([2]; no food versus in milk, conclusion in words) was “effective as a glucose blocker only if it is ingested without food on an empty stomach”, the “effect on body weight” value ([3]; 1.5 grams oral three times a day for 3 days, conclusion in words) was “effective in reducing body weight” and the “Weight after 3 days of phlorizin” value ([3]; Experiment 1, pre-phlorizin weight 192.2 lbs.) was 189.4 lbs. The “Weight after 3 days of phlorizin” value ([3]; Experiment 2, pre-phlorizin weight 193.2 lbs.) was 185.4 lbs, the “Weight after 3 days of phlorizin” value ([3]; Experiment 3, pre-phlorizin weight 191.5 lbs.) was 186.8 lbs and the “Weight after 3 days of phlorizin” value ([3]; Experiment 4, pre-phlorizin weight 194.4 lbs.) was 189.0 lbs. The INSULIN ([4]; 0 minutes (just prior to carbohydrate ingestion)) was 5 microIU/ml, the INSULIN ([4]; 30 minutes after carbohydrate ingestion) was 34 microIU/ml and the INSULIN ([4]; 60 minutes after carbohydrate ingestion) was 28 microIU/ml.

— patent US6448232B1, “Method of using dihydrochalcone derivatives to block glucose transfer” (priority 1999, dated 2002)
